Reference: DBAASP
≈ marks a conversion by molar mass, not a printed value. Values belong to the molecule of their own block, whether it stands above or below them.

What was measured:
Assay in all cases: ≥ marks a high value that may be exact or a test limit, other limits are often not marked, values filed in µg/mL are converted to µM
[1] = test system: Haemophilus influenzae ATCC 49247
Escherichia coli ML-35p = test system: Escherichia coli ML-35p
[2] = test system: Haemophilus influenzae ATCC 49766
Candida albicans = test system: Candida albicans
Escherichia coli = test system: Escherichia coli
[3] = test system: Enterococcus faecalis ATCC 29212
[4] = test system: Escherichia coli ATCC 25922
[5] = test system: Pseudomonas aeruginosa PAO1
[6] = test system: Klebsiella pneumoniae ATCC 13883
Enterobacter cloacae = test system: Enterobacter cloacae
[7] = test system: Candida albicans ATCC 2002
[8] = test system: Staphylococcus aureus ATCC 43300
Pseudomonas aeruginosa = test system: Pseudomonas aeruginosa
[9] = test system: Klebsiella pneumoniae ATCC 700603
Klebsiella aerogenes = test system: Klebsiella aerogenes
[10] = test system: Staphylococcus aureus ATCC 25923
[11] = test system: Enterobacter cloacae ATCC 13047
Staphylococcus aureus = test system: Staphylococcus aureus
[12] = test system: Erwinia amylovora PMV 6076
[13] = test system: Xanthomonas campestris pv. Vesicatoria 2133-2
[14] = test system: Pseudomonas syringae pv. syringae EPS 94
[15] = test system: Pseudomonas aeruginosa ATCC 27853
[16] = test system: Listeria monocytogenes ATCC 35152
Escherichia coli K-12 = test system: Escherichia coli K-12
Escherichia coli DC2 = test system: Escherichia coli DC2
[17] = test system: Staphylococcus aureus UAMS-1
Vibrio cholerae non-O139 = test system: Vibrio cholerae non-O139
[18] = test system: Staphylococcus epidermidis ATCC 12228
[19] = test system: Salmonella enterica subsp. enterica serovar Typhi DMST 22842
Vibrio cholerae non-O1 = test system: Vibrio cholerae non-O1
[20] = test system: Cronobacter sakazakii DPC 6440
[21] = test system: Staphylococcus aureus Newman
[22] = test system: Staphylococcus aureus RF122
[23] = test system: Escherichia coli NCIMB 11843
[24] = test system: Pseudomonas fluorescens NCIMB 9046
[25] = test system: Cronobacter sakazakii ATCC BAA-894
[26] = test system: Klebsiella pneumoniae NCIMB 13218
[27] = test system: Staphylococcus aureus SA113
[28] = test system: Staphylococcus aureus NCTC 8325-4
[29] = test system: Salmonella enterica subsp. enterica serovar Typhimurium LT2
[30] = test system: Cronobacter muytjensii ATCC 51329
[31] = test system: Staphylococcus aureus RN4220
[32] = test system: Cronobacter sakazakii DSM 4485

Compound: CC(C)C[C@H](NC(=O)[C@H](CCCCN)NC(=O)[C@H](CCCCN)NC(=O)[C@H](Cc1ccccc1)NC(=O)[C@H](Cc1ccccc1)NC(=O)[C@@H](N)CCCCN)C(=O)N[C@@H](CCCCN)C(=O)N[C@@H](CCCCN)C(=O)N[C@@H](C)C(=O)N[C@H](C(=O)N[C@@H](CCCCN)C(=O)N[C@@H](CCCCN)C(=O)NCC(=O)N[C@@H](Cc1ccccc1)C(=O)N[C@@H](CCCCN)C(=O)N[C@@H](CCCCN)C(=O)N[C@@H](Cc1ccccc1)C(=O)N[C@@H](C)C(=O)N[C@@H](CCCCN)C(=O)N[C@H](C(=O)O)C(C)C)C(C)C [KFFKKLKKAVKKGFKKFAKV]
- MIC [1]: 1.3 µM (≈ 3.13 µg/mL)
- MIC (Escherichia coli ML-35p): 2.61 µM (≈ 6.25 µg/mL)
- MIC [2]: 2.61 µM (≈ 6.25 µg/mL)
- MIC (Candida albicans): > 83.4 µM
- MIC (Escherichia coli): 5.21 µM (≈ 12.5 µg/mL)
- MIC [3]: 10.4 µM (≈ 25 µg/mL)
- MIC [4]: 5.21 µM (≈ 12.5 µg/mL)
- MIC [5]: 5.21 µM (≈ 12.5 µg/mL)
- MIC [6]: 2.61 µM (≈ 6.25 µg/mL)
- MIC (Enterobacter cloacae): ≥ 41.7 µM
- MIC [7]: ≥ 83.4 µM
- MIC [8]: 1.3 µM (≈ 3.13 µg/mL)
- MIC (Pseudomonas aeruginosa): 5.21 µM (≈ 12.5 µg/mL)
- MIC [9]: 1.3 µM (≈ 3.13 µg/mL)
- MIC (Klebsiella aerogenes): ≥ 41.7 µM
- MIC [10]: 5.21 µM (≈ 12.5 µg/mL)
- MIC [11]: ≥ 41.7 µM
- MIC (Staphylococcus aureus): 5.21 µM (≈ 12.5 µg/mL)

Compound: CC(C)C[C@H](NC(=O)[C@H](CCCCN)NC(=O)[C@@H](N)CCCCN)C(=O)NCC(=O)N[C@@H](CCC(=O)O)C(=O)N1CCC[C@H]1C(=O)N[C@@H](CO)C(=O)N[C@@H](CS)C(=O)N[C@@H](CC(N)=O)C(=O)N[C@@H](CCCCN)C(=O)N[C@@H](CC(C)C)C(=O)N[C@@H](CCCCN)C(N)=O [KKLGEPSCNKLK]
- MIC [15]: 37.2 µM (≈ 50 µg/mL)
- MIC [4]: 22.3 µM (≈ 30 µg/mL)
- MIC [6]: 29.7 µM (≈ 40 µg/mL)
- MIC [10]: 18.6 µM (≈ 25 µg/mL)
- MIC [16]: 22.3 µM (≈ 30 µg/mL)

Compound: CC[C@H](C)[C@H](NC(=O)[C@@H](N)C(C)C)C(=O)N[C@@H](CC(N)=O)C(=O)N[C@@H](CCC(=O)O)C(=O)N[C@@H](CC(N)=O)C(=O)N[C@@H](CC(C)C)C(=O)N[C@@H](CC(C)C)C(=O)N[C@@H](CCCN=C(N)N)C(=O)O [VINENLLR]
- MIC [20]: ≥ 1250 µM
- MIC [21]: ≥ 1250 µM
- MIC [22]: ≥ 1250 µM
- MIC [23]: ≥ 2500 µM
- MIC [24]: ≥ 2500 µM
- MIC [25]: ≥ 1250 µM
- MIC [26]: ≥ 2500 µM
- MIC [27]: ≥ 1250 µM
- MIC [28]: ≥ 625 µM
- MIC [29]: ≥ 2500 µM
- MIC [30]: ≥ 1250 µM
- MIC [31]: ≥ 1250 µM
- MIC [32]: ≥ 1250 µM

More lines, main results first:

- MIC [12]: 14.1 µM (≈ 40 µg/mL)
- MIC [13]: 1.77 µM (≈ 5 µg/mL)
- MIC [14]: 6.12 µM (≈ 17.3 µg/mL)
Compound: CC[C@H](C)[C@H](NC(=O)[C@H](CCCCN)NC(=O)[C@H](CCCCN)NC(=O)[C@H](Cc1ccccc1)NC(=O)[C@H](CC(C)C)NC(=O)[C@H](CCCCN)NC(=O)[C@H](CCCCN)NC(=O)[C@H](CC(C)C)NC(=O)[C@H](Cc1ccc(O)cc1)NC(=O)[C@H](CCCCN)NC(=O)[C@H](CC(C)C)NC(=O)[C@@H](NC(=O)[C@H](CCCCN)NC(=O)[C@H](CCCCN)NC(=O)[C@H](Cc1ccccc1)NC(=O)[C@H](CC(C)C)NC(=O)[C@H](CCCCN)NC(=O)[C@@H](N)CCCCN)[C@@H](C)CC)C(=O)N[C@@H](CC(C)C)C(=O)N[C@@H](CCCCN)C(=O)N[C@@H](Cc1ccc(O)cc1)C(=O)N[C@@H](CC(C)C)C(=O)O [KKLFKKILKYLKKLFKKILKYL]

- MIC (Escherichia coli K-12): ≥ 80 µM
- MIC (Escherichia coli DC2): 9 µM (≈ 25.3 µg/mL)
- MIC [17]: ≥ 160 µM
- MIC (Staphylococcus aureus): > 24 µM
Compound: CC[C@H](C)[C@H](NC(=O)[C@H](CCCCN)NC(=O)[C@H](CCC(=O)O)NC(=O)[C@H](CCCCN)NC(=O)[C@H](C)NC(=O)[C@H](CCCCN)NC(=O)[C@H](CCCN=C(N)N)NC(=O)[C@H](Cc1ccccc1)NC(=O)[C@H](Cc1ccccc1)NC(=O)[C@H](CC(=O)O)NC(=O)CNC(=O)[C@H](CC(C)C)NC(=O)[C@@H](N)CC(C)C)C(=O)NCC(=O)N[C@@H](CCCCN)C(=O)N[C@@H](CCC(=O)O)C(=O)N[C@@H](Cc1ccccc1)C(=O)N[C@@H](CCCCN)C(=O)N[C@@H](CCCN=C(N)N)C(=O)N[C@H](C(=O)N[C@H](C(=O)N[C@@H](CCC(N)=O)C(=O)N[C@@H](CCCN=C(N)N)C(=O)O)C(C)C)[C@@H](C)CC [LLGDFFRKAKEKIGKEFKRIVQR]

- MIC [18]: 36.5 µM (≈ 91 µg/mL)
- MIC [4]: > 36.5 µM
- MIC [19]: ≥ 36.5 µM
- MIC [10]: > 36.5 µM
Compound: CC(C)[C@H](NC(=O)CNC(=O)[C@@H](N)CC(N)=O)C(=O)N[C@@H](CCC(N)=O)C(=O)N1CCC[C@H]1C(=O)N[C@@H](Cc1c[nH]c2ccccc12)C(=O)N[C@@H](Cc1ccc(O)cc1)C(=O)N[C@@H](CCCCN)C(=O)N[C@@H](Cc1c[nH]c2ccccc12)C(=O)N[C@@H](Cc1c[nH]c2ccccc12)C(=O)N[C@@H](CCCCN)C(=O)N[C@@H](Cc1c[nH]c2ccccc12)C(=O)N[C@@H](Cc1c[nH]c2ccccc12)C(=O)N[C@@H](CCCCN)C(=O)N[C@@H](CCCCN)C(=O)N[C@@H](Cc1c[nH]c2ccccc12)C(=O)N[C@@H](Cc1c[nH]c2ccccc12)C(N)=O [NGVQPWYKWWKWWKKWW]
- MIC (Vibrio cholerae non-O139): ≥ 36.5 µM
- MIC (Vibrio cholerae non-O1): ≥ 36.5 µM
